Key:
[1] = tested on: Pyricularia oryzae (rice blast); test: whole plant or invertebrate; type: in vivo; details: foliar, read-out: RICE BLAST control rating
[2] = tested on: Southern corn rootworm (Diabrotica undecimpuctata howardi Barber); test: Mite/insect screen, corn rootworm; type: in vivo; details: Diabrotica, soil, read-out: CRW results (percent mortality); for mortality at 12 ppm: CRW rate 12.00 ppm; for mortality at 24 ppm: CRW rate 24.00 ppm
Experimental: (§1) The compounds of Examples were tested for miticidal and insecticidal activity in the following mite/insect screen.
(§2) Each test compound was formulated by dissolving the compound in acetone/alcohol (50:50) mixture containing 23 g of "TOXIMUL R" (sulfonate/nonionic emulsifier blend) and 13 g of "TOXIMUL S" (sulfonate/nonionic emulsifier blend) per liter. These mixtures were then diluted with water to give the indicated concentrations.
Activity on Southern corn rootworm (Diabrotica undecimpuctata howardi Barber) was evaluated by adding two ml of tap water, a presoaked corn seed, and 15 g of dry sandy soil to a one ounce plastic container. The soil was treated with 1 mL of test solution containing a predetermined concentration of test compound. After six to 12 hours of drying, five 2-3 instar corn rootworm larvae were added to the individual cups, which were then capped and held at 23° C.
(§3) After standard exposure periods, percent mortality and phytotoxicity were evaluated. […] The following abbreviations are used in Table 3:
CRW refers to corn rootworm

[3] = tested on: southern armyworm (Spodopetra eridania Cramer); test: Mite/insect screen, Southern armyworm; type: in vivo; details: Spodoptera eridania, sprayed leaves, read-out: SAW results (percent mortality); for mortality at 200 ppm: rate 200 ppm; for mortality at 400 ppm: rate 400 ppm
Experimental: as §1, §2
(§4) Twospotted spider mites (Tetranychus urticae Koch) and melon aphids (Aphis gossvpii Glover) were introduced on squash cotyledons and allowed to establish on both leaf surfaces. Other plants in the same treatment pot were left uninfested. The leaves were then sprayed with 5 ml of test solution using a DeVilbiss atomizing sprayer at 10 psi. Both surfaces of the leaves were covered until runoff, and then allowed to dry for one hour. Two uninfested leaves were then excised and placed into a Petri dish containing larval southern armyworm (Spodopetra eridania Cramer).
as §3
SAW refers to Southern armyworm

[4] = tested on: Twospotted spider mites (Tetranychus urticae Koch); test: Mite/insect screen, twospotted spider mites; type: in vivo; details: Tetranychus urticae, sprayed leaves, read-out: SM results (percent mortality); for mortality at 200 ppm: rate 200 ppm; for mortality at 400 ppm: rate 400 ppm
Experimental: as §1, §2, §4, §3
SM refers to twospotted spider mites

[5] = tested on: melon aphids (Aphis gossvpii Glover); test: Mite/insect screen, melon aphids; type: in vivo; details: Aphis, sprayed leaves, read-out: MA results (percent mortality); for mortality at 200 ppm: rate 200 ppm; for mortality at 400 ppm: rate 400 ppm
Experimental: as §1, §2, §4, §3
MA refers to melon aphids.

[6] = tested on: Puccinia recondita tritici (leaf rust); test: Plant pathology screen (Test 1), leaf rust on wheat; details: in Triticum aestivum, foliar, read-out: LEAF RUST control rating
Experimental: This screen was used to evaluate the efficacy of the present compounds against a variety of different organisms that cause plant diseases.
(§5) The test compounds were formulated for application by dissolving 50 mg of the compound into 1.25 ml of solvent. The solvent was prepared by mixing 50 ml of "Tween 20" (polyoxyethylene (20) sorbitan monolaurate emulsifier) with 475 ml of acetone and 475 ml of ethanol. The solvent/compound solution was diluted to 125 ml with deionized water. The resulting formulation contains 400 ppm test chemical. Lower concentrations were obtained by serial dilution with the solvent-surfactant mixture.
(§6) The formulated test compounds were applied by foliar spray.
(§7) The formulated technical compounds were sprayed on all foliar surfaces of the host plants (or cut berry) to past run-off. Single pots of each host plant were placed on raised, revolving pedestals in a fume hood. Test solutions were sprayed on all foliar surfaces. All treatments were allowed to dry and the plants were inoculated with the appropriate pathogens within 2-4 hours.
(§8) The effectiveness of test compounds in controlling disease was rated using the following scale.

[7] = tested on: Pseudoperonospora cubensis (downy mildew); test: Plant pathology screen (Test 1), downy mildew on squash; details: foliar, read-out: DOWN MDEW control rating
[8] = tested on: Erysiphe graminis tritici (powdery mildew); test: Plant pathology screen (Test 1), powdery mildew on wheat; details: Blumeria graminis, in Triticum aestivum, foliar, read-out: POWD MDEW control rating
Experimental: as §5, §6, §7, §8

[9] = tested on: Botrytis cinerea (gray mold); test: Plant pathology screen (Test 1), gray mold on grape berries; details: read-out: GRAY MOLD control rating

SMILES | pest or weed control at 400 µg/mL [1] [%] | mortality at 12 ppm [2] [%] | mortality at 24 ppm [2] [%] | mortality at 200 ppm [3] [%] | mortality at 400 ppm [3] [%] | mortality at 200 ppm [4] [%] | mortality at 400 ppm [4] [%] | mortality at 200 ppm [5] [%] | mortality at 400 ppm [5] [%] | pest or weed control at 400 µg/mL [6] [%] | pest or weed control at 400 µg/mL [7] [%] | pest or weed control at 400 µg/mL [8] [%] | pest or weed control at 400 µg/mL [9] [%]
COc1ccc(CCNc2ncnc3oc(C)c(C)c23)cc1 [Example 1, N-[2-(4-methoxyphenyl)ethyl]-5,6-dimethylfuro[2,3-d]pyrimidin-4-amine] | 90 to 100 | 0 | 100 | 0 | 0 | 0 | 0 | 80 | 0 | 20 to 89 | 20 to 89 | 0 to 19 | 0 to 19
COc1ccc(CCNc2ncnc3oc(C)cc23)cc1 [Example 4, N-(2-(4-methoxyphenyl)ethyl]-6-methylfuro(2,3-d]pyrimidin-4-amine] | 20 to 89 |  | 0 |  | 0 |  | 0 |  | 0 | 90 to 100 | 0 to 19 | 0 to 19 | 0 to 19
Cc1cc2c(OCCc3ccc(OCc4ccccc4)cc3)ncnc2o1 [Example 39, 6-methyl-4-[2-[4-(phenylmethoxy)phenyl]ethoxy]furo[2,3-d]pyrimidine] | 0 to 19 | 0 | 0 | 0 | 0 | 0 | 0 | 0 | 10 | 90 to 100 | 0 to 19 | 0 to 19 | 0 to 19
Cc1cc2c(OCCc3ccc(C(F)(F)F)cc3)ncnc2o1 [Example 42, 6-methyl-4-[2-[4-(trifluoromethyl)phenyl]ethoxy]furo[2,3-d]pyrimidine] | 20 to 89 | 0 | 0 | 0 | 0 | 0 | 100 | 100 | 100 | 90 to 100 | 90 to 100 | 20 to 89 | 0 to 19
Cc1oc2ncnc(Oc3ccc(OC(F)(F)F)cc3)c2c1C [Example 32, 5,6-dimethyl-4-[4-(trifluoromethoxy)phenoxy]furo[2,3-d]pyrimidine] | 0 to 19 | 0 | 0 | 0 | 0 | 0 | 0 | 0 | 0 | 0 to 19 | 0 to 19 | 0 to 19 | 
Cc1oc2ncnc(OCCc3ccc(Oc4ccc(C(F)(F)F)cc4)cc3)c2c1C [Example 41, 5,6-dimethyl-4-[2-[4-[4-(trifluoromethyl)phenoxy]phenyl]ethoxy]furo[2,3-d]pyrimidine] | 20 to 89 | 0 | 60 | 0 | 0 | 0 | 100 | 0 | 100 | 90 to 100 | 90 to 100 | 90 to 100 | 0 to 19
Cc1cc2c(OCCC34CC5CC(CC(C5)C3)C4)ncnc2o1 [Example 38, 6-methyl-4-[2-(1-adamantyl)ethoxy]furo[2,3-d]pyrimidine] | 0 to 19 | 0 | 0 | 0 | 0 | 0 | 0 | 0 | 0 | 0 to 19 | 0 to 19 | 0 to 19 | 0 to 19
COc1cccc(CCNc2ncnc3occ(C)c23)c1 [Example 33, 5-methyl-N-[2-(3-methoxyphenyl)ethyl]furo[2,3-d]pyrimidin-4-amine] | 20 to 89 | 0 | 0 | 0 | 0 | 80 | 0 | 40 | 0 | 90 to 100 | 90 to 100 | 90 to 100 | 
Fc1ccc(Oc2ncnc3oc4c(c23)CCCC4)cc1 [Example 34, 4-(4-fluorophenyloxy)-5,6,7,8-tetrahydrobenzofuro[2,3-d]pyrimidine] | 0 to 19 | 0 | 0 | 0 | 0 | 0 | 0 | 0 | 0 | 20 to 89 | 0 to 19 | 0 to 19 | 
Cc1oc2ncnc(Oc3ccc(C#N)cc3)c2c1C [Example 36, 4-[(5,6-dimethylfuro[2,3-d]pyrimidin-4-yl)oxy]benzonitrile] | 0 to 19 | 0 | 0 | 0 | 0 | 0 | 0 | 0 | 0 | 0 to 19 | 0 to 19 | 0 to 19 | 
COc1ccccc1CCNc1ncnc2occ(C)c12 [Example 35, 5-methyl-N-[2,(2-methoxyphenyl)ethyl]furo[2,3-d]pyrimidin-4-amine] | 0 to 19 | 0 | 0 | 0 | 0 | 0 | 0 | 0 | 30 | 90 to 100 | 20 to 89 | 0 to 19 | 
Cc1oc2ncnc(Oc3ccccc3C#N)c2c1C [Example 37, 2-[(5,6-dimethylfuro[2,3-d]pyrimidin-4-yl)oxy]benzonitrile] | 0 to 19 | 0 | 0 | 0 | 0 | 90 | 0 | 0 | 0 | 0 to 19 | 20 to 89 | 0 to 19 | 
Cc1oc2ncnc(OCCc3ccc(OCC(F)(F)F)cc3)c2c1C [Example 78] |  | 0 | 0 | 0 | 100 | 20 | 0 | 90 | 100 |  |  |  | 
COc1ccc(CCn2cnc3oc(C)c(C)c3c2=N)cc1 [Example 80, 3-[2-(4-methoxyphenyl)ethyl]-5,6-dimethylfuro[2,3-d]pyrimidin-4(3H)-imine] | 0 to 19 | 0 | 0 | 0 | 0 | 0 | 0 | 0 | 0 | 0 to 19 |  | 0 to 19 | 0 to 19

Reference: patent US5486516A, “Furopyrimidine derivatives” (DowElanco, priority 1993, dated 1996)
